Patent US4540700A, “Treatment of diabetic complications with certain spiro-imidazolidine-diones” (Alcon Laboratories, Inc., priority 1984, dated 1985)
Where “and” joins values, the source holds several entries; their conditions need not be identical. Equal values may be shown once.

Test system: cataract formation in galactocemic rats
Test: in vivo dose response by intubation (per oral) in galactocemic rats, cataract (vacuole) formation
Parameters: species or system Charles River CD (Sprague-Dawley derived) male rats
Method: B. In vivo dose response studies were conducted to test the in vivo activity of the following compounds by intubation (per oral) in galactocemic rats on a 30% galactose diet previously described:
Stock suspensions of the test compounds and all dilutions of the compound were formulated with 0.03% by weight Tween 80.
Healthy, Charles River CD (outbred albino, Sprague-Dawley derived) male rats, aged 20-30 days, without observable ocular defects and ranging in weight from 35-45 grams, were acclimated to experimental conditions (in quarantine) for two days prior to beginning the study.
Rats were individually assigned to one of twenty-three groups according to a random number schedule. Two rats, belonging to the same drug-diet treatment group, were housed per cage. Treatment and control groups consisted of six (6) rats each with no replacement in the event of death, and were designated as follows:
Lenses of all eyes were examined with a hand-held ophthalmoscope in the early stages of cataract development and a penlight for the stages, snowflake-like, snowflake, and nuclear cataract. Lens grading occurred every day for the first ten study days, and then every other day until study Day 14.
The relative potency determination was made at 7 drug levels over half log dose intervals. The response (percent cataracts formed and/or the time to cataract formation) was plotted against mg/kg and/or moles/kg.
The study was directed to the suppression and/or elimination of the initial stages of cataract development characterized by vacuoles or snowflake-likeopacities only. It was assumed therefore that suppression and/or elimination of vacuoles or lens opacification by the test drugs affects the transport, absorption and/or metabolism of galactose in such a manner as to prevent subsequent osmotic disturbances normally leading to tissue degeneration and advanced cataract. Advanced cataract defined as stages 2-4 of the Sipple classification was assumed to be of secondary importance to the etiology of cataract inhibition.
In the event where cataract stage other than vacuole formed, such as snowflake-like opacities, this cataract was counted similarly as vacuole in percent cataract formation.
This study yielded this expected effect in the control groups.
All animals were fed Purina Laboratory Chow and water, ad libitum, for the two day acclimation period. All drugs were dosed orally by intubation using an animal feeding needle (Popper and Sons), 18 or 20 gauge, attached to a 1 or 3 ml syringe. Once the dosing time schedule was established, the schedule was followed throughout the study to compensate for any diurnal variation.
The animals were kept on a twelve hour day/night cycle. The temperature and humidity were determined each day at the scheduled dosing time of 1:00 p.m.
The animals were weighed every other day and adjustments to dosage amounts to compensate for weight gain were made each day prior to the dose time. All food was routinely withheld from all animal groups for four hours (9:00 a.m.) prior to the drug dose and restored two hours (3:00 p.m.) post-dose. Otherwise sufficient amounts of chow or diet mixture were maintained in the food hopper to allow the animals to eat ad libitum. There were two days of drug dosage with the animals remaining on Purina Laboratory Chow (Days 1 and 2). The 30% galactose diet mixture was introduced to the animals two hours post-dose on Day 3 which constituted Day 1 of the study.
All eyes were examined with a hand-held ophthalmoscope and/or penlight at the times designated in the Experimental Design section.
It has been found in previous studies that dilation of the eye with a mydriactic (i.e. Mydriacyl) is not necessary for accurate grading, due to the semi-transparent nature of the rat iris. In the early stages (i.e., grades -, ±, and +) the lens was observed by reflecting the ophthalmoscope beam off the retina back through the lens and iris. Using this technique, vacuoles appear as dark, almost opaque patches. […]

O=C1NC(=O)C2(CCOc3ccc(F)cc32)N1 (racemic) [Sarges Racemic, dl-spiro-(6-fluorochroman-4,4'-imidazolidine)-2',5'-dione, reference compound]
Percent of Rat Eyes With at Least Vacuoles Formed (0.126 mg/kg p.o., Day 0): 0%
Percent of Rat Eyes With at Least Vacuoles Formed (0.126 mg/kg p.o., Day 1): 0%
Percent of Rat Eyes With at Least Vacuoles Formed (0.126 mg/kg p.o., Day 2): 0%
Percent of Rat Eyes With at Least Vacuoles Formed (0.126 mg/kg p.o., Day 3): 0%
Percent of Rat Eyes With at Least Vacuoles Formed (0.126 mg/kg p.o., Day 4): 0%
Percent of Rat Eyes With at Least Vacuoles Formed (0.126 mg/kg p.o., Day 5): 0%
Percent of Rat Eyes With at Least Vacuoles Formed (0.126 mg/kg p.o., Day 6): 33%
Percent of Rat Eyes With at Least Vacuoles Formed (0.126 mg/kg p.o., Day 7): 33%
Percent of Rat Eyes With at Least Vacuoles Formed (0.126 mg/kg p.o., Day 8): 50%
Percent of Rat Eyes With at Least Vacuoles Formed (0.126 mg/kg p.o., Day 9): 58%
Percent of Rat Eyes With at Least Vacuoles Formed (0.126 mg/kg p.o., Day 10): 83%
Percent of Rat Eyes With at Least Vacuoles Formed (0.126 mg/kg p.o., Day 12): 83%
Percent of Rat Eyes With at Least Vacuoles Formed (0.126 mg/kg p.o., Day 14): 100%
Percent of Rat Eyes With at Least Vacuoles Formed (0.4 mg/kg p.o., Day 0): 0%
Percent of Rat Eyes With at Least Vacuoles Formed (0.4 mg/kg p.o., Day 1): 0%
Percent of Rat Eyes With at Least Vacuoles Formed (0.4 mg/kg p.o., Day 2): 0%
Percent of Rat Eyes With at Least Vacuoles Formed (0.4 mg/kg p.o., Day 3): 0%
Percent of Rat Eyes With at Least Vacuoles Formed (0.4 mg/kg p.o., Day 4): 0%
Percent of Rat Eyes With at Least Vacuoles Formed (0.4 mg/kg p.o., Day 5): 0%
Percent of Rat Eyes With at Least Vacuoles Formed (0.4 mg/kg p.o., Day 6): 33%
Percent of Rat Eyes With at Least Vacuoles Formed (0.4 mg/kg p.o., Day 7): 33%
Percent of Rat Eyes With at Least Vacuoles Formed (0.4 mg/kg p.o., Day 8): 50%
Percent of Rat Eyes With at Least Vacuoles Formed (0.4 mg/kg p.o., Day 9): 58%
Percent of Rat Eyes With at Least Vacuoles Formed (0.4 mg/kg p.o., Day 10): 83%
Percent of Rat Eyes With at Least Vacuoles Formed (0.4 mg/kg p.o., Day 12): 83%
Percent of Rat Eyes With at Least Vacuoles Formed (0.4 mg/kg p.o., Day 14): 100%
Percent of Rat Eyes With at Least Vacuoles Formed (1.26 mg/kg p.o., Day 0): 0%
Percent of Rat Eyes With at Least Vacuoles Formed (1.26 mg/kg p.o., Day 1): 0%
Percent of Rat Eyes With at Least Vacuoles Formed (1.26 mg/kg p.o., Day 2): 0%
Percent of Rat Eyes With at Least Vacuoles Formed (1.26 mg/kg p.o., Day 3): 0%
Percent of Rat Eyes With at Least Vacuoles Formed (1.26 mg/kg p.o., Day 4): 0%
Percent of Rat Eyes With at Least Vacuoles Formed (1.26 mg/kg p.o., Day 5): 0%
Percent of Rat Eyes With at Least Vacuoles Formed (1.26 mg/kg p.o., Day 6): 0%
Percent of Rat Eyes With at Least Vacuoles Formed (1.26 mg/kg p.o., Day 7): 0%
Percent of Rat Eyes With at Least Vacuoles Formed (1.26 mg/kg p.o., Day 8): 8%
Percent of Rat Eyes With at Least Vacuoles Formed (1.26 mg/kg p.o., Day 9): 17%
Percent of Rat Eyes With at Least Vacuoles Formed (1.26 mg/kg p.o., Day 10): 83%
Percent of Rat Eyes With at Least Vacuoles Formed (1.26 mg/kg p.o., Day 12): 100%
Percent of Rat Eyes With at Least Vacuoles Formed (1.26 mg/kg p.o., Day 14): 100%
Percent of Rat Eyes With at Least Vacuoles Formed (4.0 mg/kg p.o., Day 0): 0%
Percent of Rat Eyes With at Least Vacuoles Formed (4.0 mg/kg p.o., Day 1): 0%
Percent of Rat Eyes With at Least Vacuoles Formed (4.0 mg/kg p.o., Day 2): 0%
Percent of Rat Eyes With at Least Vacuoles Formed (4.0 mg/kg p.o., Day 3): 0%
Percent of Rat Eyes With at Least Vacuoles Formed (4.0 mg/kg p.o., Day 4): 0%
Percent of Rat Eyes With at Least Vacuoles Formed (4.0 mg/kg p.o., Day 5): 0%
Percent of Rat Eyes With at Least Vacuoles Formed (4.0 mg/kg p.o., Day 6): 0%
Percent of Rat Eyes With at Least Vacuoles Formed (4.0 mg/kg p.o., Day 7): 0%
Percent of Rat Eyes With at Least Vacuoles Formed (4.0 mg/kg p.o., Day 8): 0%
Percent of Rat Eyes With at Least Vacuoles Formed (4.0 mg/kg p.o., Day 9): 0%
Percent of Rat Eyes With at Least Vacuoles Formed (4.0 mg/kg p.o., Day 10): 0%
Percent of Rat Eyes With at Least Vacuoles Formed (4.0 mg/kg p.o., Day 12): 17% and 16.7%
Percent of Rat Eyes With at Least Vacuoles Formed (4.0 mg/kg p.o., Day 14): 50%
Percent of Rat Eyes With at Least Vacuoles Formed (12.6 mg/kg p.o., Day 0): 0%
Percent of Rat Eyes With at Least Vacuoles Formed (12.6 mg/kg p.o., Day 1): 0%
Percent of Rat Eyes With at Least Vacuoles Formed (12.6 mg/kg p.o., Day 2): 0%
Percent of Rat Eyes With at Least Vacuoles Formed (12.6 mg/kg p.o., Day 3): 0%
Percent of Rat Eyes With at Least Vacuoles Formed (12.6 mg/kg p.o., Day 4): 0%
Percent of Rat Eyes With at Least Vacuoles Formed (12.6 mg/kg p.o., Day 5): 0%
Percent of Rat Eyes With at Least Vacuoles Formed (12.6 mg/kg p.o., Day 6): 0%
Percent of Rat Eyes With at Least Vacuoles Formed (12.6 mg/kg p.o., Day 7): 0%
Percent of Rat Eyes With at Least Vacuoles Formed (12.6 mg/kg p.o., Day 8): 0%
Percent of Rat Eyes With at Least Vacuoles Formed (12.6 mg/kg p.o., Day 9): 0%
Percent of Rat Eyes With at Least Vacuoles Formed (12.6 mg/kg p.o., Day 10): 0%
Percent of Rat Eyes With at Least Vacuoles Formed (12.6 mg/kg p.o., Day 12): 0%
Percent of Rat Eyes With at Least Vacuoles Formed (12.6 mg/kg p.o., Day 14): 8% and 0.3%
Percent of Rat Eyes With at Least Vacuoles Formed (40 mg/kg p.o., Day 0): 0%
Percent of Rat Eyes With at Least Vacuoles Formed (40 mg/kg p.o., Day 1): 0%
Percent of Rat Eyes With at Least Vacuoles Formed (40 mg/kg p.o., Day 2): 0%
Percent of Rat Eyes With at Least Vacuoles Formed (40 mg/kg p.o., Day 3): 0%
Percent of Rat Eyes With at Least Vacuoles Formed (40 mg/kg p.o., Day 4): 0%
Percent of Rat Eyes With at Least Vacuoles Formed (40 mg/kg p.o., Day 5): 0%
Percent of Rat Eyes With at Least Vacuoles Formed (40 mg/kg p.o., Day 6): 0%
Percent of Rat Eyes With at Least Vacuoles Formed (40 mg/kg p.o., Day 7): 0%
Percent of Rat Eyes With at Least Vacuoles Formed (40 mg/kg p.o., Day 8): 0%
Percent of Rat Eyes With at Least Vacuoles Formed (40 mg/kg p.o., Day 9): 0%
Percent of Rat Eyes With at Least Vacuoles Formed (40 mg/kg p.o., Day 10): 0%
Percent of Rat Eyes With at Least Vacuoles Formed (40 mg/kg p.o., Day 12): 0%
Percent of Rat Eyes With at Least Vacuoles Formed (40 mg/kg p.o., Day 14): 0%
